Measured values taken from patent publication US20260130395A1, “Water Dispersible Botanical Compositions” (Aquila Black Limited, priority 2021, published 2026).

Assay: Stability of cannabinoid compounds and Vitamin E components in Beverage 2 (AB Red) by LCMSMS
Type: physicochemical

Structure (SMILES): CCCc1cc(O)c2c(c1)OC(C)(C)[C@@H]1CCC(C)=C[C@@H]21 [THCV, delta-9-tetrahydrocannabivarin]
- Stability of Plant-Derived Cannabinoid Compounds in AB Red (stored at 8° C., 0 days): 3.22 µg/mL
- Stability of Plant-Derived Cannabinoid Compounds in AB Red (stored at 8° C., 1 days): 3.19 µg/mL
- Stability of Plant-Derived Cannabinoid Compounds in AB Red (stored at 8° C., 2 days): 3.17 µg/mL
- Stability of Plant-Derived Cannabinoid Compounds in AB Red (stored at 8° C., 3 days): 3.20 µg/mL
- Stability of Plant-Derived Cannabinoid Compounds in AB Red (stored at 8° C., 5 days): 3.24 µg/mL
- Stability of Plant-Derived Cannabinoid Compounds in AB Red (stored at 8° C., 8 days): 3.17 µg/mL
- Stability of Plant-Derived Cannabinoid Compounds in AB Red (stored at 8° C., 9 days): 3.14 µg/mL
- Stability of Plant-Derived Cannabinoid Compounds in AB Red (stored at 8° C., 10 days): 3.14 µg/mL
- Stability of Plant-Derived Cannabinoid Compounds in AB Red (stored at 8° C., 11 days): 3.24 µg/mL
- Stability of Plant-Derived Cannabinoid Compounds in AB Red (stored at 8° C., 12 days): 3.25 µg/mL
- Stability of Plant-Derived Cannabinoid Compounds in AB Red (stored at 8° C., 15 days): 3.19 µg/mL
- Stability of Plant-Derived Cannabinoid Compounds in AB Red (stored at 8° C., 16 days): 3.25 µg/mL
- Stability of Plant-Derived Cannabinoid Compounds in AB Red (stored at 8° C., 17 days): 3.12 µg/mL
- Stability of Plant-Derived Cannabinoid Compounds in AB Red (stored at 8° C., 18 days): 3.17 µg/mL
- Stability of Plant-Derived Cannabinoid Compounds in AB Red (stored at 8° C., 19 days): 3.19 µg/mL
- Stability of Plant-Derived Cannabinoid Compounds in AB Red (stored at 8° C., 22 days): 3.22 µg/mL
- Stability of Plant-Derived Cannabinoid Compounds in AB Red (stored at 8° C., 23 days): 3.25 µg/mL
- Stability of Plant-Derived Cannabinoid Compounds in AB Red (stored at 8° C., 24 days): 3.15 µg/mL
- Stability of Plant-Derived Cannabinoid Compounds in AB Red (stored at 8° C., 25 days): 3.25 µg/mL
- Stability of Plant-Derived Cannabinoid Compounds in AB Red (stored at 8° C., 26 days): 3.13 µg/mL
- Stability of Plant-Derived Cannabinoid Compounds in AB Red (stored at 8° C., 29 days): 3.22 µg/mL
- Stability of Plant-Derived Cannabinoid Compounds in AB Red (stored at 8° C., 30 days): 3.20 µg/mL
- Stability of Plant-Derived Cannabinoid Compounds in AB Red (stored at 8° C., 60 days): 3.11 µg/mL
- Stability of Plant-Derived Cannabinoid Compounds in AB Red (stored at 8° C., 90 days): 3.10 µg/mL
- Stability of Plant-Derived Cannabinoid Compounds in AB Red (stored at 8° C., 120 days): 3.10 µg/mL
- Stability of Plant-Derived Cannabinoid Compounds in AB Red (stored at 8° C., 150 days): 3.15 µg/mL
- Stability of Plant-Derived Cannabinoid Compounds in AB Red (stored at 8° C., 180 days): 3.10 µg/mL
- Stability of Plant-Derived Cannabinoid Compounds in AB Red (stored at 8° C., 210 days): 3.15 µg/mL
- Stability of Plant-Derived Cannabinoid Compounds in AB Red (stored at 8° C., 240 days): 3.08 µg/mL
- Stability of Plant-Derived Cannabinoid Compounds in AB Red (stored at 8° C., 270 days): 3.15 µg/mL
- Stability of Plant-Derived Cannabinoid Compounds in AB Red (stored at 8° C., 300 days): 3.15 µg/mL
- Stability of Plant-Derived Cannabinoid Compounds in AB Red (stored at 8° C., 330 days): 3.15 µg/mL
- Stability of Plant-Derived Cannabinoid Compounds in AB Red (stored at 8° C., 360 days): 3.08 µg/mL
- Stability of Plant-Derived Cannabinoid Compounds in AB Red (stored at 8° C., 390 days): 3.08 µg/mL
- Stability of Plant-Derived Cannabinoid Compounds in AB Red (stored at 8° C., 420 days): 3.13 µg/mL
- Stability of Plant-Derived Cannabinoid Compounds in AB Red (stored at 8° C., 450 days): 3.08 µg/mL
- Stability of Plant-Derived Cannabinoid Compounds in AB Red (stored at 8° C., 480 days): 3.05 µg/mL
- Stability of Plant-Derived Cannabinoid Compounds in AB Red (stored at 8° C., 510 days): 2.95 µg/mL
- Stability of Plant-Derived Cannabinoid Compounds in AB Red (stored at 8° C., 540 days): 2.99 µg/mL
- Stability of Plant-Derived Cannabinoid Compounds in AB Red (stored at 8° C., 570 days): 2.95 µg/mL
- Stability of Plant-Derived Cannabinoid Compounds in AB Red (stored at 21-25° C., 0 days): 3.22 µg/mL
- Stability of Plant-Derived Cannabinoid Compounds in AB Red (stored at 21-25° C., 1 days): 3.13 µg/mL
- Stability of Plant-Derived Cannabinoid Compounds in AB Red (stored at 21-25° C., 2 days): 3.20 µg/mL
- Stability of Plant-Derived Cannabinoid Compounds in AB Red (stored at 21-25° C., 3 days): 3.25 µg/mL
- Stability of Plant-Derived Cannabinoid Compounds in AB Red (stored at 21-25° C., 5 days): 3.25 µg/mL
- Stability of Plant-Derived Cannabinoid Compounds in AB Red (stored at 21-25° C., 8 days): 3.19 µg/mL
- Stability of Plant-Derived Cannabinoid Compounds in AB Red (stored at 21-25° C., 9 days): 3.17 µg/mL
- Stability of Plant-Derived Cannabinoid Compounds in AB Red (stored at 21-25° C., 10 days): 3.09 µg/mL
- Stability of Plant-Derived Cannabinoid Compounds in AB Red (stored at 21-25° C., 11 days): 3.24 µg/mL
- Stability of Plant-Derived Cannabinoid Compounds in AB Red (stored at 21-25° C., 12 days): 3.24 µg/mL
- Stability of Plant-Derived Cannabinoid Compounds in AB Red (stored at 21-25° C., 15 days): 3.20 µg/mL
- Stability of Plant-Derived Cannabinoid Compounds in AB Red (stored at 21-25° C., 16 days): 3.20 µg/mL
- Stability of Plant-Derived Cannabinoid Compounds in AB Red (stored at 21-25° C., 17 days): 3.11 µg/mL
- Stability of Plant-Derived Cannabinoid Compounds in AB Red (stored at 21-25° C., 18 days): 3.19 µg/mL
- Stability of Plant-Derived Cannabinoid Compounds in AB Red (stored at 21-25° C., 19 days): 3.19 µg/mL
- Stability of Plant-Derived Cannabinoid Compounds in AB Red (stored at 21-25° C., 22 days): 3.18 µg/mL
- Stability of Plant-Derived Cannabinoid Compounds in AB Red (stored at 21-25° C., 23 days): 3.23 µg/mL
- Stability of Plant-Derived Cannabinoid Compounds in AB Red (stored at 21-25° C., 24 days): 3.25 µg/mL
- Stability of Plant-Derived Cannabinoid Compounds in AB Red (stored at 21-25° C., 25 days): 3.24 µg/mL
- Stability of Plant-Derived Cannabinoid Compounds in AB Red (stored at 21-25° C., 26 days): 3.11 µg/mL
- Stability of Plant-Derived Cannabinoid Compounds in AB Red (stored at 21-25° C., 29 days): 3.15 µg/mL
- Stability of Plant-Derived Cannabinoid Compounds in AB Red (stored at 21-25° C., 30 days): 3.15 µg/mL
- Stability of Plant-Derived Cannabinoid Compounds in AB Red (stored at 21-25° C., 60 days): 3.18 µg/mL
- Stability of Plant-Derived Cannabinoid Compounds in AB Red (stored at 21-25° C., 90 days): 3.05 µg/mL
- Stability of Plant-Derived Cannabinoid Compounds in AB Red (stored at 21-25° C., 120 days): 3.09 µg/mL
- Stability of Plant-Derived Cannabinoid Compounds in AB Red (stored at 21-25° C., 150 days): 3.17 µg/mL
- Stability of Plant-Derived Cannabinoid Compounds in AB Red (stored at 21-25° C., 180 days): 3.10 µg/mL
- Stability of Plant-Derived Cannabinoid Compounds in AB Red (stored at 21-25° C., 210 days): 3.03 µg/mL
- Stability of Plant-Derived Cannabinoid Compounds in AB Red (stored at 21-25° C., 240 days): 3.18 µg/mL
- Stability of Plant-Derived Cannabinoid Compounds in AB Red (stored at 21-25° C., 270 days): 3.04 µg/mL
- Stability of Plant-Derived Cannabinoid Compounds in AB Red (stored at 21-25° C., 300 days): 3.14 µg/mL
- Stability of Plant-Derived Cannabinoid Compounds in AB Red (stored at 21-25° C., 330 days): 3.19 µg/mL
- Stability of Plant-Derived Cannabinoid Compounds in AB Red (stored at 21-25° C., 360 days): 3.05 µg/mL
- Stability of Plant-Derived Cannabinoid Compounds in AB Red (stored at 21-25° C., 390 days): 3.04 µg/mL
- Stability of Plant-Derived Cannabinoid Compounds in AB Red (stored at 21-25° C., 420 days): 3.10 µg/mL
- Stability of Plant-Derived Cannabinoid Compounds in AB Red (stored at 21-25° C., 450 days): 3.14 µg/mL
- Stability of Plant-Derived Cannabinoid Compounds in AB Red (stored at 21-25° C., 480 days): 3.04 µg/mL
- Stability of Plant-Derived Cannabinoid Compounds in AB Red (stored at 21-25° C., 510 days): 3.01 µg/mL
- Stability of Plant-Derived Cannabinoid Compounds in AB Red (stored at 21-25° C., 540 days): 2.95 µg/mL
- Stability of Plant-Derived Cannabinoid Compounds in AB Red (stored at 21-25° C., 570 days): 2.98 µg/mL
